Data from ChEMBL document CHEMBL1201862, “PubChem BioAssay data set” (2004).
Activity calls are given as the source filed them.

Tests used:
[1] = target: T1, Long-chain-fatty-acid--AMP ligase FadD28 (Mycobacterium tuberculosis, UniProt P9WQ59); assay: Fluorescence polarization aasay to screen for inhibitors that compete for the binding of FadD28 to a bisubstrate Measured in Biochemical System Using Plate Reader - 2147-01_Inhibitor_Dose_CherryPick_Activity.; format: functional, Mycobacterium tuberculosis H37Rv
T1 sequence (P9WQ59 whole entry): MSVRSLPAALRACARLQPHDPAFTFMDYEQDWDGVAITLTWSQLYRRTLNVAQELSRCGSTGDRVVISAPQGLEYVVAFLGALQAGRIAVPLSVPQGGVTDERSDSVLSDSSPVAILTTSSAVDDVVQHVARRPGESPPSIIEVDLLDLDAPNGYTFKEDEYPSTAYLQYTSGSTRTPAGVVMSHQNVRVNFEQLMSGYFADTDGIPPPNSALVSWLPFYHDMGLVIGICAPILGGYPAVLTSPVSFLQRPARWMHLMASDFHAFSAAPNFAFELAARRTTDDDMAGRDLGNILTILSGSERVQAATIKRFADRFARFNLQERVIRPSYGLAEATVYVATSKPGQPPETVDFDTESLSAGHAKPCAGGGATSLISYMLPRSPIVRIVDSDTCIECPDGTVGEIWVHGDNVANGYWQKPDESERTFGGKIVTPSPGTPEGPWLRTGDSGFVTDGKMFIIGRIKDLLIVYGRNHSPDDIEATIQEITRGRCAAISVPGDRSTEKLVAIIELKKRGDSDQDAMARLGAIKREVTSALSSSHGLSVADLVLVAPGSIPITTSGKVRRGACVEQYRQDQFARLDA

[2] = target: T2, Probable nicotinate-nucleotide adenylyltransferase (Staphylococcus aureus (strain N315), UniProt P65502); format: functional, Staphylococcus aureus subsp. aureus N315; conditions: read-out: IC50_Mean;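 for IC50 Mean: confirmatory dose-response retesting of NadD inhibitor hits first found in an ultra-high-throughput screen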
[3] = target: T2, Probable nicotinate-nucleotide adenylyltransferase; format: functional, Staphylococcus aureus subsp. aureus N315
[4] = HepG2 cell cytotoxicity, dose response, cytotoxicity control for Shn3 inhibitor project, CellTiter-Glo, cherry-picked (AID 624134); format: functional, cell-based
cells [5] = format: functional, cell-based; conditions: HEK-CNG
[6] = Shn3 3'UTR reporter inhibitors, dose response, cell-based, Clone20 osteoblasts, firefly luciferase, cherry-picked (AID 624132); format: functional;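 note: firefly luciferase luminescence from reporter carrying the Shn3 3'UTR in osteoblasts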
[7] = cytotoxicity in HEK-293T cells, dose response, cytotoxicity control for TCR NF-kB inhibitor project, luminescence, T-cell screen hits (AID 489026); format: functional, cell-based;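 note: cells exposed to compound about 14 hours before the viability readout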
Galanin receptor type 3 = target: T3, Galanin receptor type 3 (Homo sapiens, UniProt O60755); assay: Fluorescence-based cell-based primary high throughput dose response assay to identify antagonists of the Galanin Receptor 3 (GalR3).; format: functional
T3 sequence (O60755 whole entry): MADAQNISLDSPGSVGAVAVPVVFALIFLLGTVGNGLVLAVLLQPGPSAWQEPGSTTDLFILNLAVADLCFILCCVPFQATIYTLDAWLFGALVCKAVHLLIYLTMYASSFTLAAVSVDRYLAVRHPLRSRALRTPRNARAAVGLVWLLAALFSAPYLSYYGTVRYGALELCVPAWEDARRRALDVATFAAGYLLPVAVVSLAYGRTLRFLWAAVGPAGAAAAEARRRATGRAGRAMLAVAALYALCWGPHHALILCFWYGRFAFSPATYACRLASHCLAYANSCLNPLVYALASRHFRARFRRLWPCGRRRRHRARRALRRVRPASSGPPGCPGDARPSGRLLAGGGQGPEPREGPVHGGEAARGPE

[8] = control 3'UTR Renilla luciferase suppression, dose response, counter-screen for Shn3 inhibitor project, cell-based, Clone20-Shn3RL, cherry-picked (AID 624133); format: functional
Beta-galactosidase = Beta-galactosidase (Escherichia coli, UniProt Q8VNN2); assay: Dose response counterscreen for EBI2 assay utilizing the enzyme, b-galactosidase.; format: functional
[9] = Luminescence Cell-Based Dose Confirmation HTS to Identify Inhibitors of Platelet Dense Granule Release. [Related pubchem assays: 1663 (Primary HTS), 1678 (Summary of Project)]; format: functional
[10] = target: Luciferin 4-monooxygenase (Photinus pyralis, UniProt P08659); assay: firefly luciferase enzyme inhibitors, dose response, biochemical, luminescence (AID 1891)
Streptococcus = assay: Group A Streptococcus viability loss, dose response, counter-screen for streptokinase expression inhibitor project, luminescence, BacTiterGlo (AID 1915); format: functional, organism-based;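 note: potency for reduction of bacterial viability or growth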
[11] = target: T4, Zinc finger protein mex-5 (Caenorhabditis elegans, UniProt Q9XUB2); assay: MEX-5/TCR-2 RNA interaction inhibitors, dose response, biochemical, C. elegans, fluorescence polarization (AID 1960)
T4 sequence (Q9XUB2 whole entry): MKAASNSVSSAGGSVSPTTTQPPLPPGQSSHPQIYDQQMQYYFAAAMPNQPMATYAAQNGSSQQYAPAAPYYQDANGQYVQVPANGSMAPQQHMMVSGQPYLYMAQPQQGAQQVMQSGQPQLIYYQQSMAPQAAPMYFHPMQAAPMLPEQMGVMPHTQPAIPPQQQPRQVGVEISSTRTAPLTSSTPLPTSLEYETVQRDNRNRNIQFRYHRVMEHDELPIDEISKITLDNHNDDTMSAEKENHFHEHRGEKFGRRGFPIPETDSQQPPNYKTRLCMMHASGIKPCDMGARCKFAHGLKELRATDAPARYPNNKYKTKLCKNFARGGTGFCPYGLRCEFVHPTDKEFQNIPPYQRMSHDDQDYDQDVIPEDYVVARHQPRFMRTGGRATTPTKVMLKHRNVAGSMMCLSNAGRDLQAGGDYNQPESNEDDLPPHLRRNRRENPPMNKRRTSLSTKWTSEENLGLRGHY

[12] = target: T5, RNA-binding protein pos-1 (Caenorhabditis elegans, UniProt G5EF15); assay: inhibitors of POS-1/mex-3 RNA binding, dose response, biochemical, fluorescence polarization (AID 1964);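 note: purified POS-1 fused to maltose binding protein made in E. coli; potency of compounds blocking POS-1 binding to fluorescent RNA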
T5 sequence (G5EF15 whole entry): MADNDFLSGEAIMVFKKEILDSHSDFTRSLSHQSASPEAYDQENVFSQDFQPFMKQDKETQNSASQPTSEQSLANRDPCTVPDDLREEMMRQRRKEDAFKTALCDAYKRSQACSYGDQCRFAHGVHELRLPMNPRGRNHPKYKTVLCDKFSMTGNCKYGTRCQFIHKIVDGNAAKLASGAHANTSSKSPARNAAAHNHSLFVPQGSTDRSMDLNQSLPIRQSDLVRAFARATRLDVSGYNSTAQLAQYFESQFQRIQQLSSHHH

[13] = system: Streptococcus sp. 'group A'; assay: growth inhibition of control SK(-) GAS strain, dose response, counter-screen for streptokinase expression inhibitor project, luminescence, kanamycin, BacTiterGlo, confirmation (AID 1900); format: functional, organism-based
INS1 = assay: beta cell apoptosis inhibitors, cytokine rescue, dose response, luminescence, retest (AID 449756); format: functional, cell-based; conditions: Rattus norvegicus;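 note: cell death triggered by IL-1 beta plus TNF-alpha plus IFN-gamma mixture; protective hits raise ATP signal compared with cytokine alone wells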
Fatty acid synthase [14] = target: T6, Fatty acid synthase (Homo sapiens, UniProt P49327); assay: FAS thioesterase domain inhibitors, dose response, biochemical, endpoint fluorescence intensity, uHTS hits (AID 624327); format: functional;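 note: fluorescence from hydrolysis of an O-methyl fluorescein acyl ester substrate by the enzyme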
Fatty acid synthase [15] = target: T6, Fatty acid synthase; assay: FAS thioesterase domain inhibitors, dose response, biochemical, kinetic fluorescence intensity (AID 624326); format: functional;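 note: rate of fluorescence rise from hydrolysis of a fluorogenic O-methyl fluorescein ester substrate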
[16] = target: T7, Nuclear receptor subfamily 0 group B member 1 (Homo sapiens, UniProt P51843); format: functional, cell-based;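 note: HEK293T cells transfected with SF-1 and DAX-1 plus StAR promoter luciferase reporter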
T7 sequence (P51843 whole entry): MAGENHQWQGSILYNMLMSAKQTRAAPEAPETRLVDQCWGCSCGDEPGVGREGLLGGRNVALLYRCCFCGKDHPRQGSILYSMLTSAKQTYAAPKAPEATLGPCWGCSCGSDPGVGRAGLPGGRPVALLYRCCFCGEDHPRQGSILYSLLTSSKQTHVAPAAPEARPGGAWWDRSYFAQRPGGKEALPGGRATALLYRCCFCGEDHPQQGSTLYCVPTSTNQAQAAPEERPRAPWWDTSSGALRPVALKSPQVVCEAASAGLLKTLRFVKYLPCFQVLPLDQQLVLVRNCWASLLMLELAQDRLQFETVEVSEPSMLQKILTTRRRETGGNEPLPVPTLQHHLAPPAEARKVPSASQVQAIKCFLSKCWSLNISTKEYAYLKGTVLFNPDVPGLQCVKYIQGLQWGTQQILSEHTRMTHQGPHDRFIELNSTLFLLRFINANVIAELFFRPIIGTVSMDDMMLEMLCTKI

cells [17] = format: functional, cell-based
fMet-Leu-Phe receptor = target: T8, fMet-Leu-Phe receptor (Homo sapiens, UniProt P21462); assay: FPR ligands, dose response (AID 519); format: functional
T8 sequence (P21462 whole entry): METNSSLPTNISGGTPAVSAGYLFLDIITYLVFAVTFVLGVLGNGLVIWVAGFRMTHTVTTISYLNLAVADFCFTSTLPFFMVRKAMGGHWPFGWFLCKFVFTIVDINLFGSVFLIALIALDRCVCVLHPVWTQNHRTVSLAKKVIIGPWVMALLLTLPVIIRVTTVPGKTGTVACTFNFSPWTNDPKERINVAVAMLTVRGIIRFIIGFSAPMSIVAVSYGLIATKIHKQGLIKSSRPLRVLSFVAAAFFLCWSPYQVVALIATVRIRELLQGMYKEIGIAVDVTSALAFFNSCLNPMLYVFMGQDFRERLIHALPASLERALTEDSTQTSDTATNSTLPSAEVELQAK

[18] = target: T9, Corticotropin-releasing factor receptor 2/Corticotropin-releasing factor-binding protein (Homo sapiens, UniProt P24387+Q13324); assay: activators of CRF receptor 2 with binding protein – uHTS hits, confirmation (AID 602473); format: functional; conditions: read-out: EC50_Mean
T9 sequence (Q13324 whole entry): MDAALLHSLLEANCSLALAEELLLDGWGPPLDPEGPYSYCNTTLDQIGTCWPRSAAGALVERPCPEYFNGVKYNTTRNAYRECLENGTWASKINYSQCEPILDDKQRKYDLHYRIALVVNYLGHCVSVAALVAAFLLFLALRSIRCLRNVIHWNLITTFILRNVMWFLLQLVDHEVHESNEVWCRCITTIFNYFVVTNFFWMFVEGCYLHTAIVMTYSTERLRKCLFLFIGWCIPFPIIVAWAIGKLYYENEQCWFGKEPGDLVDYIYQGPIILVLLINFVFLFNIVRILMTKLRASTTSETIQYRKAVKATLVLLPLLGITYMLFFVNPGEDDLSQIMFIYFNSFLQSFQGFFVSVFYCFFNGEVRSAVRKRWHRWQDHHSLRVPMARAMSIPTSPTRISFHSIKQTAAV
T9 sequence (P24387 whole entry): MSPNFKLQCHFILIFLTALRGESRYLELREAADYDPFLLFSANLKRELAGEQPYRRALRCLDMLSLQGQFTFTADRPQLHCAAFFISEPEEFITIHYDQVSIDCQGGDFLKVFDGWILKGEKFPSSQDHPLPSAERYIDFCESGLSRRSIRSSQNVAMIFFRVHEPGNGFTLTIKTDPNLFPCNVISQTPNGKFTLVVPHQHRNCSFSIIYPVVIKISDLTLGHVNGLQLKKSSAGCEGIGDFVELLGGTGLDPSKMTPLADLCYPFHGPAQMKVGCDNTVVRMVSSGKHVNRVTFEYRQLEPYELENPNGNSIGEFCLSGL

[19] = target: T9, Corticotropin-releasing factor receptor 2/Corticotropin-releasing factor-binding protein; assay: Dose Response confirmation of uHTS hits for small molecule antagonists of the CRF-binding protein and CRF-R2 receptor complex.; format: functional; conditions: read-out: IC50_Mean

T2 sequence (P65502 whole entry): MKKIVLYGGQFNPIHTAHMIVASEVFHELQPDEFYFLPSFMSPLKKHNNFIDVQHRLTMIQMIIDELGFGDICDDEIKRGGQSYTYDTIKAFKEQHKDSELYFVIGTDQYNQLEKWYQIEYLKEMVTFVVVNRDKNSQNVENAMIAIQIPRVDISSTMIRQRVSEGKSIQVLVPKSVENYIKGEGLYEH
Chain of Beta-galactosidase (Q8VNN2 whole entry): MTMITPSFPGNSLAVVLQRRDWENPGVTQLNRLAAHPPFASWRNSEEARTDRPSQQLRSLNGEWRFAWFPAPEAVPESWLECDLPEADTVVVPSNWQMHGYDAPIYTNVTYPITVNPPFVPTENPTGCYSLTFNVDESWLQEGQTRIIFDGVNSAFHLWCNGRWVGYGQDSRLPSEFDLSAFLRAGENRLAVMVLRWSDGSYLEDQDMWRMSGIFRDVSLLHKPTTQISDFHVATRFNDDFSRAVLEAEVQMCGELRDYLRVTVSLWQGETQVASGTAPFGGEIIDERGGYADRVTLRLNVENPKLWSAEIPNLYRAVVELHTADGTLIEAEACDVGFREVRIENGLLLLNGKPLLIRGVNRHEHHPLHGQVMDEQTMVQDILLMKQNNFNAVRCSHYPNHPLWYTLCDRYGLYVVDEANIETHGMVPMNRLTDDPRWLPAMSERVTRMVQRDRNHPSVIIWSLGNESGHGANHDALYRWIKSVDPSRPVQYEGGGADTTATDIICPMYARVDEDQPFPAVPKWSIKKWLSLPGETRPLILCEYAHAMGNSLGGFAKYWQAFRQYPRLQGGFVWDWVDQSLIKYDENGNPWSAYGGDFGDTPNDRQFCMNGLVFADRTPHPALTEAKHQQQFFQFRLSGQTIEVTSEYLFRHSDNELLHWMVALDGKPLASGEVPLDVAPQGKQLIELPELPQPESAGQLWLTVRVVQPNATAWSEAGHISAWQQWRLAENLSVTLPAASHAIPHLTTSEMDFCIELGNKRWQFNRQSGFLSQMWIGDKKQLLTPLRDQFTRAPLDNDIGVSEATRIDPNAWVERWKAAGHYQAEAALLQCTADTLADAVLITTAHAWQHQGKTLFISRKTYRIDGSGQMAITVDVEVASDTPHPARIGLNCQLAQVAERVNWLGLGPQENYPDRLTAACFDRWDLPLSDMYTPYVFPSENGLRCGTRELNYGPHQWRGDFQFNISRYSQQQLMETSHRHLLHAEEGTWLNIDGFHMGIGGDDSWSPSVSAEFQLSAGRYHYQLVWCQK
T6 sequence (P49327 whole entry, the tested form may be a part): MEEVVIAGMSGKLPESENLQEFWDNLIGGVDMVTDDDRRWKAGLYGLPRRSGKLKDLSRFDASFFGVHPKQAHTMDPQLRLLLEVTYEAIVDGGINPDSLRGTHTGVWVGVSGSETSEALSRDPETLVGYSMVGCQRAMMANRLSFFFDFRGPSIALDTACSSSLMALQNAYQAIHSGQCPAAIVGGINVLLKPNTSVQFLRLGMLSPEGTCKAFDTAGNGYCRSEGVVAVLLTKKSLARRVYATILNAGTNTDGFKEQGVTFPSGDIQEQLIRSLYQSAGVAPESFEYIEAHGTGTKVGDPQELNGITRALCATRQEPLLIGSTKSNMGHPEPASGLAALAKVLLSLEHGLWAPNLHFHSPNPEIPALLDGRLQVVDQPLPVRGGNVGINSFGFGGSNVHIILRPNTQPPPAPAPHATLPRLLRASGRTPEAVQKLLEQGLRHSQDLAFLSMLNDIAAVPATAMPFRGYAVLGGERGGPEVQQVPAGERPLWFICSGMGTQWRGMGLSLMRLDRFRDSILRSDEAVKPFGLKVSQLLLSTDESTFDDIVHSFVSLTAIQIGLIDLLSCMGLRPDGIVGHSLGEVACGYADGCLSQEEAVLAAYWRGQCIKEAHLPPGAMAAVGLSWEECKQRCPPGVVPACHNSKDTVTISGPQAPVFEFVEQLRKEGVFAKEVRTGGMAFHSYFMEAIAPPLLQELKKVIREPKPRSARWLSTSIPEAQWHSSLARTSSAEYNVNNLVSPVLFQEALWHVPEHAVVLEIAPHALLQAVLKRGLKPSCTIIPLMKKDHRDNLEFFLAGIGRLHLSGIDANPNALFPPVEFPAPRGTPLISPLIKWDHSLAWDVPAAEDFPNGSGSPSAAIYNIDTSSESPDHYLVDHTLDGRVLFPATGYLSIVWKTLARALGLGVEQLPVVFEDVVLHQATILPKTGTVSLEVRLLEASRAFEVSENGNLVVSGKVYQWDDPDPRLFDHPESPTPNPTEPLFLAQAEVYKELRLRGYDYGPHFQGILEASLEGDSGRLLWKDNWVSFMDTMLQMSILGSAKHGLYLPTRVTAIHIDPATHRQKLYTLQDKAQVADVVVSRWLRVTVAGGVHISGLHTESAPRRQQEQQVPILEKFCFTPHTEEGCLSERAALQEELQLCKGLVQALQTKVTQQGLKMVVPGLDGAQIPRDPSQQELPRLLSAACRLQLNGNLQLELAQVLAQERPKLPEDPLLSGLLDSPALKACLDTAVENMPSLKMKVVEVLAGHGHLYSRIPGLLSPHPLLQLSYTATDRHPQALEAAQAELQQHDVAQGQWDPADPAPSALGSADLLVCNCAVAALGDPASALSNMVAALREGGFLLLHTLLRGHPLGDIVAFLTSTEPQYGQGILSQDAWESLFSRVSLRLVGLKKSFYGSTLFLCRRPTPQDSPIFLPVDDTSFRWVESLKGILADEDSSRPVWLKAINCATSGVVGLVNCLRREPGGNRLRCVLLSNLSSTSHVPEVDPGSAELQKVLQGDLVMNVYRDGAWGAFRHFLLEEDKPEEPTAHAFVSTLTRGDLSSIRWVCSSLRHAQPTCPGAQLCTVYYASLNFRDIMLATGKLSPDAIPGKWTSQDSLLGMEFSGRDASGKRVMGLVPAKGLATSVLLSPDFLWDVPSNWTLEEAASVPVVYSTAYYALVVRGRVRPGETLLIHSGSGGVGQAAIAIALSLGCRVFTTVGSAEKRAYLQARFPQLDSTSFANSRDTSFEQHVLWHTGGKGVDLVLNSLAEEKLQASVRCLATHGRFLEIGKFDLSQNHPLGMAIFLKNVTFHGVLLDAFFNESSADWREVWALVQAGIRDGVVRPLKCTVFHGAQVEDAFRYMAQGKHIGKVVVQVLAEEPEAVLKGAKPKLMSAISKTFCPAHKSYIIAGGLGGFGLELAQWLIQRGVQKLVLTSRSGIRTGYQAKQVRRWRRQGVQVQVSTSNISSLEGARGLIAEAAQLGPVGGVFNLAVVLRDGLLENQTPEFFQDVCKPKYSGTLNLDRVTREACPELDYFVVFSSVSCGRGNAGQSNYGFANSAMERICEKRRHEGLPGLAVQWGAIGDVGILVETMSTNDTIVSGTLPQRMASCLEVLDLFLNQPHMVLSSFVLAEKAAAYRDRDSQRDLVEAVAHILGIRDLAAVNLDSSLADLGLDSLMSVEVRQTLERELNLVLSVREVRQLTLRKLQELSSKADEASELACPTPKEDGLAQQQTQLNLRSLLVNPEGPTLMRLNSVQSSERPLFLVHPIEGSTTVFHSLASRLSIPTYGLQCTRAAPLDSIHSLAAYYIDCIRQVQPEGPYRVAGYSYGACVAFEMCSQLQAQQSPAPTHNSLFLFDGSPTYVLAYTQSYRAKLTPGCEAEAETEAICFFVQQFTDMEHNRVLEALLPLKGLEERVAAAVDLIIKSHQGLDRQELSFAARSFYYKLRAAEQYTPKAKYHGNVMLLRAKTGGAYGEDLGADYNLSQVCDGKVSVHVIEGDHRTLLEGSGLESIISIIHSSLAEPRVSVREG
Chain of Luciferin 4-monooxygenase (P08659 whole entry): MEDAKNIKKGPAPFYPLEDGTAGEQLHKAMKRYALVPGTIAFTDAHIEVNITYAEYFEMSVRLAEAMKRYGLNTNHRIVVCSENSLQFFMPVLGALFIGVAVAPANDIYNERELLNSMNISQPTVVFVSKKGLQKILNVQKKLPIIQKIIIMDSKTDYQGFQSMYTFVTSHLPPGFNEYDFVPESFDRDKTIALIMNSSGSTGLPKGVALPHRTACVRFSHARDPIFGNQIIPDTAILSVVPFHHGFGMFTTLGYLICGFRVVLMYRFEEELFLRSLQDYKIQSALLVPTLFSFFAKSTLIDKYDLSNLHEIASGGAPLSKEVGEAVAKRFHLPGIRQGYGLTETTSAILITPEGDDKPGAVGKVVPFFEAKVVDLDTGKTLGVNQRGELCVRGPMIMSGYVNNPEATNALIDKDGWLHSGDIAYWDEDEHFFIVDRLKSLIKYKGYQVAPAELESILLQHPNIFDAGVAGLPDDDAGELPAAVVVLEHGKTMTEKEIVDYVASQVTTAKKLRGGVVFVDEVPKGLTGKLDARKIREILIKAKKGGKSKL

## C/C(Cl)=C/Cn1c(SC(C)C)nc2c1c(=O)[nH]c(=O)n2C
[1]
  AC50: > 100 µM (inactive)

## CCc1nnc(NS(=O)(=O)c2ccc(/N=C/c3c(C)nn(-c4ccc(Cl)cc4)c3O)cc2)s1
[2]
  IC50: 25.5 µM (active)
[3]
  IC50: 6.87 µM (active)

## Cc1ccc(Oc2ccc(OCC(=O)Nc3ccncc3)cc2)cc1
[4]
  AC50: 4.76 µM (active)
Cells [5]
  EC50: > 29.9 µM (inactive)
[6]
  AC50: 1.55 µM (active)
[7]
  IC50: > 80 µM (inactive)
Galanin receptor type 3
  IC50: 0.158 µM (active)
[8]
  AC50: < 1 µM (active)

## O=C(c1cc2cc(F)ccc2[nH]1)N1CCN(Cc2ccc3c(c2)OCO3)CC1
Beta-galactosidase
  IC50: > 80 µM (inactive)
[9]
  EC50: > 112 µM (not active)
[10]
  EC50: > 112 µM (not active)

## COc1ccc(-n2c(C)cc(C(=O)COC(=O)Cn3cnc4ccccc43)c2C)cc1
Cells [5]
  EC50: > 29.9 µM (inactive)
Galanin receptor type 3
  IC50: 0.762 µM (active)

## Cc1ccc2sc(NNC(=O)c3cc(=O)c4ccccc4o3)nc2c1C
[2]
  IC50: 17.7 µM (active)
[3]
  IC50: 4.17 µM (active)
Streptococcus
  EC50: 2.5 µM (active)
[11]
  EC50: > 300 µM (inconclusive)
[12]
  EC50: > 300 µM (not active)
[13]
  EC50: 0.744 µM (active)

## Cc1ccc(S(=O)(=O)Nc2ccccc2C(=O)Nc2nc(-c3ccc(F)cc3)cs2)cc1
[2]
  IC50: 62.2 µM (active)
Cells [5]
  EC50: > 29.9 µM (inactive)
INS1
  AC50: 2.97 µM (active)
[3]
  IC50: 7.69 µM (active)
Galanin receptor type 3
  IC50: 1.44 µM (active)
Fatty acid synthase [14]
  IC50: 9.65 µM (active)
Fatty acid synthase [15]
  IC50: 10.7 µM (active)

## S=C(NCCc1ccccc1)Nc1ncccn1
[16]
  IC50: > 67.5 µM (inactive)
Cells [17]
  IC50: > 67.5 µM (inactive)

## CCC(=O)Nc1c(C#N)c2nc3ccccc3nc2n1-c1ccccc1C
fMet-Leu-Phe receptor
  Ki: 12 µM (active)

## COc1ccc(/C=C/C(=O)N2CCN(S(=O)(=O)/C=C/c3ccccc3)CC2)cc1OC
Beta-galactosidase
  IC50: > 80 µM (inactive)

## Cc1ccc(C2C3=C(O)CC(C)(C)CC3=Nc3nc(S)nc(O)c32)cc1 (stereo not given)
fMet-Leu-Phe receptor
  Ki: 47.9 µM (inactive)

## COc1ccc(N2CCN(C(=O)c3cc(=O)c4cc(C)c(C)cc4o3)CC2)cc1
Beta-galactosidase
  IC50: > 80 µM (inactive)
[18]
  EC50: > 53 µM (inactive)
[19]
  IC50: > 47.1 µM (inactive)
